The results in this text go back to patent publication US20230022157A1 (Achillion Pharmaceuticals, Inc., priority 2018, published 2023).

A value given as a limit tells only on which side of the number the result lay.

One experiment deals with T1, Human Factor D (Homo sapiens, UniProt P00746).
T1 construct: purified from human serum; purchased Complement Technology, Inc; host or cells: human serum (natural protein, not recombinant)
T1 sequence (P00746 26-253): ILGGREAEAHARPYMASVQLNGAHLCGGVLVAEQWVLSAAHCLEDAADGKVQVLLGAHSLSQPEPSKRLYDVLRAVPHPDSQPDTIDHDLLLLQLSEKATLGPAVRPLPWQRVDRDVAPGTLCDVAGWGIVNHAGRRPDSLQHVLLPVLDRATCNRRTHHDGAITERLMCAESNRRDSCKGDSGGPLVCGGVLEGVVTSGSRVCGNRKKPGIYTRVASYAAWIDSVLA
In words: Human Factor D Assay. It counts as biochemical. To be noted: Human Factor D 80 nM, substrate Z-L-Lys-SBzl, assay of Example 3; read-out: IC50 (Stars). Put shortly:
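Serum-purified human factor D (80 nM final) preincubated 5 min at room temperature with test compound in 50 mM Tris, 1M NaCl, pH 7.5. Z-L-Lys-SBzl substrate and DTNB then added, each at 100 μM final. IC50 from nonlinear regression of reaction rate against compound concentration.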
`CC(=O)c1nn(CC(=O)N2[C@H](C(=O)NCCc3cc(Cl)ccc3Cl)C[C@@]3(C)C[C@@H]23)c2c(C)cc(-c3cnc(C)nc3)cc12` [Compound 4, (1R,3S,5R)-2-(2-(3-Acetyl-7-methyl-5-(2-methylpyrimidin-5-yl)-1H-indazol-1-yl)acetyl)-N-(2,5-dichlorophenethyl)-5-methyl-2-azabicyclo[3.1.0]hexane-3-carboxamide]: the 50% inhibitory concentration (IC50) is under 1000 nM.

In the case of `CC(=O)c1nn(CC(=O)N2[C@H](C(=O)Nc3nc(Br)ccc3C)C[C@@]3(CO)C[C@@H]23)c2c(C)cc(-c3cnc(CO)nc3)cc12` [Compound 31], the IC50 is under 1000 nM.

As for `CCC[C@@H](C)NC(=O)[C@@H]1C[C@@]2(C)C[C@H]2N1C(=O)Cn1nc(C(C)=O)c2cc(-c3cnc(C)nc3)ccc21` [Compound 16, (1R,3S,5R)-2-(2-(3-Acetyl-5-(2-methylpyrimidin-5-yl)-1H-indazol-1-yl)acetyl)-5-methyl-N—((R)-pentan-2-yl)-2-azabicyclo[3.1.0]hexane-3-carboxamide], the half-maximal inhibitory concentration (IC50) was under 1000 nM.

For the molecule `CC(=O)c1nn(CC(=O)N2[C@H](C(=O)Nc3nc(Br)ccc3C)C[C@@]3(C)C[C@@H]23)c2ccc(-c3cnc(CO)nc3)cc12` [Compound 30, (1R,3S,5R)-2-(2-(3-acetyl-5-(2-(hydroxymethyl)pyrimidin-5-yl)-1H-indazol-1-yl)acetyl)-N-(6-bromo-3-methylpyridin-2-yl)-5-methyl-2-azabicyclo[3.1.0]hexane-3-carboxamide], the IC50 was under 1000 nM.

On to `CC(=O)c1nn(CC(=O)N2[C@H](C(=O)N[C@H](C)C(C)C)C[C@@]3(C)C[C@@H]23)c2ccc(-c3cnc(C)nc3)cc12` [Compound 14, (1R,3S,5R)-2-(2-(3-Acetyl-5-(2-methylpyrimidin-5-yl)-1H-indazol-1-yl)acetyl)-5-methyl-N—((R)-3-methylbutan-2-yl)-2-azabicyclo[3.1.0]hexane-3-carboxamide], for which the IC50 is under 1000 nM.

Staying with this experiment, now noted: Human Factor D 80 nM, substrate Z-L-Lys-SBzl; Table 2; read-out: IC50 (Stars).
Take `CC(=O)c1cn(CC(=O)N2[C@H](C(=O)Nc3ccc(C)c(Br)n3)C[C@@]3(C)C[C@@H]23)c2c(C)cc(-c3cnc(C)nc3)cc12` [Compound 156, (1R,3S,5R)-2-(2-(3-acetyl-7-methyl-5-(2-methylpyrimidin-5-yl)-1H-indol-1-yl)acetyl)-N-(6-bromo-5-methylpyridin-2-yl)-5-methyl-2-azabicyclo[3.1.0]hexane-3-carboxamide]: the IC50 was under 1000 nM.

For the molecule `CC(=O)c1cn(CC(=O)N2[C@H](C(=O)Nc3nc(C(F)(F)F)ccc3C)C[C@@]3(C)C[C@@H]23)c2cc(F)c(-c3cnc4cc(C)nn4c3)cc12` [Compound 230, (1R,3S,5R)-2-(2-(3-acetyl-6-fluoro-5-(2-methylpyrazolo[1,5-a]pyrimidin-6-yl)-1H-indol-1-yl)acetyl)-5-methyl-N-(3-methyl-6-(trifluoromethyl)pyridin-2-yl)-2-azabicyclo[3.1.0]hexane-3-carboxamide], the IC50 was under 1000 nM.

With `Cc1ncc(-c2cc3c(C(N)=O)nn(CC(=O)N4C(C(=O)Nc5nc(Br)ccc5Cl)CC5(C)CC45)c3c(C)n2)cn1` (stereo not shown) [Compound 91, 1-{2-[3-(6-Bromo-3-chloro-pyridin-2-ylcarbamoyl)-5-methyl-2-aza-bicyclo[3.1.0]hex-2-yl]-2-oxo-ethyl}-7-methyl-5-(2-methyl-pyrimidin-5-yl)-1H-pyrazolo[3,4-c]pyridine-3-carboxylic acid amide], the IC50 was under 1000 nM.

As for `CC(=O)c1nn(CC(=O)N2[C@H]3CC[C@H](C3)[C@H]2C(=O)Nc2nc(Br)c(F)cc2C)c2c(C)cc(-c3cnc(C)nc3)cc12` [Compound 101, (1S,3S,4R)-2-(2-(3-Acetyl-7-methyl-5-(2-methylpyrimidin-5-yl)-1H-indazol-1-yl)acetyl)-N-(6-bromo-5-fluoro-3-methylpyridin-2-yl)-2-azabicyclo[2.2.1]heptane-3-carboxamide], the IC50 is under 1000 nM.

In the case of `CC(=O)c1nn(CC(=O)N2[C@H](C(=O)N[C@H]3CCCCC34OCCO4)C[C@@]3(C)C[C@@H]23)c2c(C)cc(-c3cnc(C)nc3)cc12` (single isomer, unassigned) [Compound 135], the IC50 fell in the range of 1000 to 10000 nM.

`CC(=O)c1nn(CC(=O)N2[C@H](C(=O)NCCc3cc[nH]n3)C[C@@]3(C)C[C@@H]23)c2c(C)cc(-c3cnc(C)nc3)cc12` [Compound 106, (1R,3S,5R)-2-{2-[3-acetyl-7-methyl-5-(2-methylpyrimidin-5-yl)indazol-1-yl]acetyl}-5-methyl-N-[2-(1H-pyrazol-3-yl)ethyl]-2-azabicyclo[3.1.0]hexane-3-carboxamide]: the IC50 is under 1000 nM.

`CC(=O)c1nn(CC(=O)N2[C@H](C(=O)Nc3nc(Br)c(F)cc3C)C[C@@]3(C)C[C@@H]23)c2c(C)cc(-c3ccc(CO)nc3)cc12` [Compound 118, (1R,3S,5R)-2-(2-(3-acetyl-5-(6-(hydroxymethyl)pyridin-3-yl)-7-methyl-1H-indazol-1-yl)acetyl)-N-(6-bromo-5-fluoro-3-methylpyridin-2-yl)-5-methyl-2-azabicyclo[3.1.0]hexane-3-carboxamide]: the 50% inhibitory concentration (IC50) was under 1000 nM.

In the case of `CC(=O)c1cn(CC(=O)N2C[C@H]3C[C@H]3[C@H]2C(=O)Nc2nc(Br)ccc2C)c2c(C)cc(-c3cnc(CO)nc3)cc12` [Compound 79, (1R,2S,5S)-3-(2-(3-acetyl-5-(2-(hydroxymethyl)pyrimidin-5-yl)-7-methyl-11H-indol-1-yl)acetyl)-N-(6-bromo-3-methylpyridin-2-yl)-3-azabicyclo[3.1.0]hexane-2-carboxamide], the IC50 is under 1000 nM.

`CC(=O)c1nn(CC(=O)N2[C@H](C(=O)NC(C)c3cccnn3)C[C@@]3(C)C[C@@H]23)c2c(C)cc(-c3cnc(C)nc3)cc12` (stereo partly drawn) [Compound 189, (1R,3S,5R)-2-{2-[3-acetyl-7-methyl-5-(2-methylpyrimidin-5-yl)indazol-1-yl]acetyl}-5-methyl-N-[1-(pyridazin-3-yl)ethyl]-2-azabicyclo[3.1.0]hexane-3-carboxamide]: the IC50 was under 1000 nM.

On to `Cc1ncc(-c2cc(C)c3c(c2)c(C(C)O)cn3CC(=O)N2[C@H](C(=O)Nc3nc(Br)ccc3C)C[C@@]3(C)C[C@@H]23)cn1` (stereo partly drawn) [Compound 191, (1R,3S,5R)—N-(6-bromo-3-methylpyridin-2-yl)-2-(2-(3-(1-hydroxyethyl)-7-methyl-5-(2-methylpyrimidin-5-yl)-1H-indol-1-yl)acetyl)-5-methyl-2-azabicyclo[3.1.0]hexane-3-carboxamide], for which the 50% inhibitory concentration (IC50) is under 1000 nM.

As to `CC(=O)c1nn(CC(=O)N2[C@H](C(=O)Nc3nc(C(F)(F)F)ccc3C)C[C@@]3(C)C[C@@H]23)c2c(C)cc(-c3cnc(C)nc3)cc12` [Compound 236, (1R,3S,5R)-2-(2-(3-acetyl-7-methyl-5-(2-methylpyrimidin-5-yl)-1H-indazol-1-yl)acetyl)-5-methyl-N-(3-methyl-6-(trifluoromethyl)pyridin-2-yl)-2-azabicyclo[3.1.0]hexane-3-carboxamide], the IC50 is under 1000 nM.

As for `CC(=O)c1nn(CC(=O)N2[C@H](C(=O)Nc3nc(Br)ccc3C)C[C@@]3(C)C[C@@H]23)c2c(C)cc(-c3cnc(C(C)O)cn3)cc12` (stereo partly drawn) [Compound 176, (1R,3S,5R)-2-(2-(3-acetyl-5-(5-(1-hydroxyethyl)pyrazin-2-yl)-7-methyl-1H-indazol-1-yl)acetyl)-N-(6-bromo-3-methylpyridin-2-yl)-5-methyl-2-azabicyclo[3.1.0]hexane-3-carboxamide], the IC50 is under 1000 nM.

For `CC(=O)c1nn(CC(=O)N2[C@H]3CC[C@H](C3)[C@H]2C(=O)Nc2nc(Br)c(F)cc2C)c2c(C3CC3)cc(-c3cnc(C)nc3)cc12` [Compound 122, (1S,3S,4R)-2-(2-(3-Acetyl-7-cyclopropyl-5-(2-methylpyrimidin-5-yl)-1H-indazol-1-yl)acetyl)-N-(6-bromo-5-fluoro-3-methylpyridin-2-yl)-2-azabicyclo[2.2.1]heptane-3-carboxamide], the IC50 was under 1000 nM.

For `CC(=O)c1nn(CC(=O)N2[C@H](C(=O)Nc3nc(Br)ccc3C)C[C@@]3(C)C[C@@H]23)c2c(C)cc(-c3cnc(C(N)=O)nc3)cc12` [Compound 53, (1R,3S,5R)-2-(2-(3-acetyl-5-(2-carbamoylpyrimidin-5-yl)-7-methyl-1H-indazol-1-yl)acetyl)-N-(6-bromo-3-methylpyridin-2-yl)-5-methyl-2-azabicyclo[3.1.0]hexane-3-carboxamide], the IC50 is under 1000 nM.

Consider `CC(=O)c1nn(CC(=O)N2[C@H]3CC[C@H](C3)[C@H]2C(=O)Nc2nc(Br)ccc2C)c2c(C)cc(-c3cnc(C)nc3)cc12` [Compound 99, (1S,3S,4R)-2-(2-(3-Acetyl-7-methyl-5-(2-methylpyrimidin-5-yl)-1H-indazol-1-yl)acetyl)-N-(6-bromo-3-methylpyridin-2-yl)-2-azabicyclo[2.2.1]heptane-3-carboxamide], for which the IC50 is under 1000 nM.

Consider `CC(=O)c1nn(CC(=O)N2[C@H](C(=O)Nc3cncc(Br)n3)C[C@@]3(C)C[C@@H]23)c2c(C)cc(-c3ccc(CO)nc3)cc12` [Compound 119, (1R,3S,5R)-2-(2-(3-acetyl-5-(6-(hydroxymethyl)pyridin-3-yl)-7-methyl-1H-indazol-1-yl)acetyl)-N-(6-bromopyrazin-2-yl)-5-methyl-2-azabicyclo[3.1.0]hexane-3-carboxamide], for which the IC50 was under 1000 nM.

For `CC(=O)c1nn(CC(=O)N2[C@H](C(=O)Nc3nc(Br)c(F)cc3C)C[C@@]3(C)C[C@@H]23)c2c(C)cc(-c3cnc(CO)nc3)cc12` [Compound 49, (1R,3S,5R)-2-(2-(3-acetyl-5-(2-(hydroxymethyl)pyrimidin-5-yl)-7-methyl-1H-indazol-1-yl)acetyl)-N-(6-bromo-5-fluoro-3-methylpyridin-2-yl)-5-methyl-2-azabicyclo[3.1.0]hexane-3-carboxamide], the IC50 was under 1000 nM.

The term IC50 denotes the midpoint of a concentration-inhibition curve.
